Assay results published in PMC6437697 (Journal of Medicinal Chemistry, 2019).

Assays:
[1] = tested on: IRE1α-dependent splicing of XBP1u-luciferase mRNA reporter in HEK293 cells; assay: XBP1 luciferase fusion mRNA splicing reporter in HEK293 cells; type: cell-based, human; conditions: HEK293TN; read-out: XBP1 reporter cleavage in HEK293TN IC50
[2] = molecular target: recombinant G547 IRE1α KEN domain (Homo sapiens, UniProt O75460); assay: IRE1α S724 autophosphorylation assay (DELFIA); type: biochemical; conditions: read-out: IRE1a autophosphorylation inhibition (DELFIA IC50 nM)
[3] = molecular target: recombinant dephosphorylated G547 IRE1α KEN domain (Homo sapiens, UniProt O75460); assay: IRE1α ATP-site binding assay (LanthaScreen tracer displacement); conditions: read-out: IRE1a ATP site binding (LanthaScreen IC50 nM)
[4] = tested on: HEK293 cells stably expressing an XBP1u-luciferase mRNA reporter; conditions: read-out: HEK293 cytotoxicity (CellTitreBlue) IC50

recombinant G547 IRE1α KEN domain, sequence (O75460 547-977): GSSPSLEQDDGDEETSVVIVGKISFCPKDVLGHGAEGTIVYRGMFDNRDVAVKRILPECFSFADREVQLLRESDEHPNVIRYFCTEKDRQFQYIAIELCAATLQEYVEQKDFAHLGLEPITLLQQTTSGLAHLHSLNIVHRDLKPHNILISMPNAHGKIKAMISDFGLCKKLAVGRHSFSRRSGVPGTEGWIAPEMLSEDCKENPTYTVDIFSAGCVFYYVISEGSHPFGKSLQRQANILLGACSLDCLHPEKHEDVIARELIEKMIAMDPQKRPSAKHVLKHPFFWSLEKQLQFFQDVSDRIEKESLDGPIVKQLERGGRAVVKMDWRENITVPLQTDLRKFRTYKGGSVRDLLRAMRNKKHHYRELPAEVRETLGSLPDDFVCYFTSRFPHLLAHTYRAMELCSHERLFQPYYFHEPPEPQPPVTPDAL
recombinant dephosphorylated G547 IRE1α KEN domain, sequence (O75460 547-977): as above

Structure (SMILES) | IC50 [1] | IC50 [2] | IC50 [3] | IC50 [4]
Fc1cc(F)cc(Cn2cc(-c3ccnc4[nH]cnc34)cn2)c1 [Control A, 7-(1-(3,5-difluorobenzyl)-1H-pyrazol-4-yl)-3H-imidazo[4,5-b]pyridine, reference compound] | 6.2 µM | 3110 nM | 3280 nM | > 50 µM
CC(C)Nc1cc(Cl)nn2c(-c3ccc4[nH]ncc4c3)cnc12 [compound 33] | – | 276 nM | 736 nM | –
